# Species on record: Rattus norvegicus
# Assay: DrugMatrix - Regimen: Daily Repeat
# Format: toxicity, organism-based, Sprague-Dawley
# Design: regimen Daily Repeat, gender Male, age 6-8 weeks
# Settings: in vivo, sc, route mini-PUMP - SUBCUTANEOUS, vehicle 100 % SALINE; for ABSOLUTE BASOPHIL / ABSOLUTE EOSINOPHIL / ABSOLUTE LYMPHOCYTE / ABSOLUTE MONOCYTE / ABSOLUTE SEGMENTED NEUTROPHIL / BASOPHIL / EOSINOPHIL / ERYTHROCYTE COUNT / HEMOGLOBIN / LEUKOCYTE COUNT / LYMPHOCYTE / MEAN CORPUSCULAR HEMOGLOBIN / MEAN CORPUSCULAR HEMOGLOBIN CONCENTRATION / MEAN CORPUSCULAR VOLUME / NUCLEATED RED BLOOD CELLS / PLATELET COUNT: tissue Blood; for ALANINE AMINOTRANSFERASE / ALBUMIN / ALKALINE PHOSPHATASE / ASPARTATE AMINOTRANSFERASE / BLOOD UREA NITROGEN / CARBON DIOXIDE / CHLORIDE / CHOLESTEROL / CREATININE / LACTATE DEHYDROGENASE / LIPASE / PHOSPHORUS / POTASSIUM / SODIUM / TOTAL BILIRUBIN / TOTAL PROTEIN: tissue Plasma
# [1] = 0 mg/kg, 72 h, dose level Control, time 3 day
# [2] = 0 mg/kg, 120 h, dose level Control, time 5 day
# [3] = 0 mg/kg, […], dose level Control, time 14 day
# [4] = […], 72 h, dose 0.77 mg/Kg, dose level High, time 3 day
# [5] = […], 120 h, dose 0.77 mg/Kg, dose level High, time 5 day
structure (smiles),measurement,setting,value
CNCC(O)c1ccc(O)c(O)c1 (configuration not stated) [RACEPINEPHRINE],ABSOLUTE BASOPHIL,[1],0 CELLS/uL
same,ABSOLUTE EOSINOPHIL,[1],77.17 CELLS/uL
same,ABSOLUTE LYMPHOCYTE,[1],14293.83 CELLS/uL
same,ABSOLUTE MONOCYTE,[1],354 CELLS/uL
same,ABSOLUTE SEGMENTED NEUTROPHIL,[1],1658.33 CELLS/uL
same,BASOPHIL,[1],0%
same,EOSINOPHIL,[1],0.5%
same,ERYTHROCYTE COUNT,[1],6.27 x10E6/uL
same,HEMOGLOBIN,[1],13.4 G/DL
same,LEUKOCYTE COUNT,[1],16.38 x10E3/uL
same,LYMPHOCYTE,[1],87.17%
same,MEAN CORPUSCULAR HEMOGLOBIN,[1],21.42 pg
same,MEAN CORPUSCULAR HEMOGLOBIN CONCENTRATION,[1],36.27 G/DL
same,MEAN CORPUSCULAR VOLUME,[1],59.03 fL
same,NUCLEATED RED BLOOD CELLS,[1],0 /100WBC
same,PLATELET COUNT,[1],904.67 x10E3/uL
same,ALANINE AMINOTRANSFERASE,[1],48.33 u/L
same,ALBUMIN,[1],3.82 G/DL
same,ALKALINE PHOSPHATASE,[1],282.33 u/L
same,ASPARTATE AMINOTRANSFERASE,[1],86.83 u/L
same,BLOOD UREA NITROGEN,[1],20.17 mg/dL
same,CARBON DIOXIDE,[1],34.67 mmol/L
same,CHLORIDE,[1],102 MEQ/L
same,CHOLESTEROL,[1],71.5 mg/dL
same,CREATININE,[1],0.2 mg/dL
same,LACTATE DEHYDROGENASE,[1],159 u/L
same,LIPASE,[1],9 u/L
same,PHOSPHORUS,[1],10.12 mg/dL
same,POTASSIUM,[1],5.92 MEQ/L
same,SODIUM,[1],147.8 MEQ/L
same,TOTAL BILIRUBIN,[1],0.2 mg/dL
same,TOTAL PROTEIN,[1],6.05 G/DL
same,ABSOLUTE BASOPHIL,[2],0 CELLS/uL
same,ABSOLUTE EOSINOPHIL,[2],0 CELLS/uL
same,ABSOLUTE LYMPHOCYTE,[2],14257.33 CELLS/uL
same,ABSOLUTE MONOCYTE,[2],326 CELLS/uL
same,ABSOLUTE SEGMENTED NEUTROPHIL,[2],3216.67 CELLS/uL
same,BASOPHIL,[2],0%
same,EOSINOPHIL,[2],0%
same,ERYTHROCYTE COUNT,[2],6.11 x10E6/uL
same,HEMOGLOBIN,[2],13.18 G/DL
same,LEUKOCYTE COUNT,[2],17.8 x10E3/uL
same,LYMPHOCYTE,[2],80.5%
same,MEAN CORPUSCULAR HEMOGLOBIN,[2],21.62 pg
same,MEAN CORPUSCULAR HEMOGLOBIN CONCENTRATION,[2],36.42 G/DL
same,MEAN CORPUSCULAR VOLUME,[2],59.37 fL
same,NUCLEATED RED BLOOD CELLS,[2],0 /100WBC
same,PLATELET COUNT,[2],1311 x10E3/uL
same,ALANINE AMINOTRANSFERASE,[2],47 u/L
same,ALBUMIN,[2],3.83 G/DL
same,ALKALINE PHOSPHATASE,[2],260.33 u/L
same,ASPARTATE AMINOTRANSFERASE,[2],76.17 u/L
same,BLOOD UREA NITROGEN,[2],14.67 mg/dL
same,CARBON DIOXIDE,[2],31.33 mmol/L
same,CHLORIDE,[2],101.17 MEQ/L
same,CHOLESTEROL,[2],75 mg/dL
same,LACTATE DEHYDROGENASE,[2],147.33 u/L
same,LIPASE,[2],9.33 u/L
same,PHOSPHORUS,[2],10.97 mg/dL
same,POTASSIUM,[2],6 MEQ/L
same,SODIUM,[2],145.52 MEQ/L
same,TOTAL PROTEIN,[2],5.83 G/DL
same,ABSOLUTE BASOPHIL,[3],0 CELLS/uL
same,ABSOLUTE EOSINOPHIL,[3],64.5 CELLS/uL
same,ABSOLUTE LYMPHOCYTE,[3],12507.83 CELLS/uL
same,ABSOLUTE MONOCYTE,[3],380.33 CELLS/uL
same,ABSOLUTE SEGMENTED NEUTROPHIL,[3],2414 CELLS/uL
same,BASOPHIL,[3],0%
same,EOSINOPHIL,[3],0.5%
same,ERYTHROCYTE COUNT,[3],6.1 x10E6/uL
same,HEMOGLOBIN,[3],12.88 G/DL
same,LEUKOCYTE COUNT,[3],15.37 x10E3/uL
same,LYMPHOCYTE,[3],80.83%
same,MEAN CORPUSCULAR HEMOGLOBIN,[3],21.18 pg
same,MEAN CORPUSCULAR HEMOGLOBIN CONCENTRATION,[3],36.43 G/DL
same,MEAN CORPUSCULAR VOLUME,[3],58.17 fL
same,NUCLEATED RED BLOOD CELLS,[3],0.17 /100WBC
same,PLATELET COUNT,[3],1016 x10E3/uL
same,ALANINE AMINOTRANSFERASE,[3],53.33 u/L
same,ALBUMIN,[3],3.93 G/DL
same,ALKALINE PHOSPHATASE,[3],319.83 u/L
same,ASPARTATE AMINOTRANSFERASE,[3],84 u/L
same,BLOOD UREA NITROGEN,[3],15.5 mg/dL
same,CARBON DIOXIDE,[3],34 mmol/L
same,CHLORIDE,[3],101.83 MEQ/L
same,CHOLESTEROL,[3],57 mg/dL
same,CREATININE,[3],0.21 mg/dL
same,LACTATE DEHYDROGENASE,[3],104.67 u/L
same,LIPASE,[3],9.17 u/L
same,PHOSPHORUS,[3],11.12 mg/dL
same,POTASSIUM,[3],5.81 MEQ/L
same,SODIUM,[3],144.85 MEQ/L
same,TOTAL BILIRUBIN,[3],0.18 mg/dL
same,TOTAL PROTEIN,[3],5.92 G/DL
same,ABSOLUTE BASOPHIL,[4],0 CELLS/uL
same,ABSOLUTE EOSINOPHIL,[4],65.33 CELLS/uL
same,ABSOLUTE LYMPHOCYTE,[4],15348.67 CELLS/uL
same,ABSOLUTE MONOCYTE,[4],375.67 CELLS/uL
same,ABSOLUTE SEGMENTED NEUTROPHIL,[4],2177 CELLS/uL
same,BASOPHIL,[4],0%
same,ERYTHROCYTE COUNT,[4],6.29 x10E6/uL
same,HEMOGLOBIN,[4],13.53 G/DL
same,LEUKOCYTE COUNT,[4],17.97 x10E3/uL
same,MEAN CORPUSCULAR HEMOGLOBIN,[4],21.53 pg
same,MEAN CORPUSCULAR HEMOGLOBIN CONCENTRATION,[4],36.13 G/DL
same,MEAN CORPUSCULAR VOLUME,[4],59.7 fL
same,NUCLEATED RED BLOOD CELLS,[4],0 /100WBC
same,PLATELET COUNT,[4],1245.67 x10E3/uL
same,ALANINE AMINOTRANSFERASE,[4],52.67 u/L
same,ALBUMIN,[4],4 G/DL
same,ALKALINE PHOSPHATASE,[4],340.67 u/L
same,ASPARTATE AMINOTRANSFERASE,[4],85 u/L
same,BLOOD UREA NITROGEN,[4],16.33 mg/dL
same,CARBON DIOXIDE,[4],25.67 mmol/L
same,CHLORIDE,[4],101 MEQ/L
same,CHOLESTEROL,[4],83.33 mg/dL
same,LACTATE DEHYDROGENASE,[4],441.33 u/L
same,LIPASE,[4],9.67 u/L
same,PHOSPHORUS,[4],12.23 mg/dL
same,POTASSIUM,[4],6.83 MEQ/L
same,SODIUM,[4],145.53 MEQ/L
same,TOTAL BILIRUBIN,[4],0.13 mg/dL
same,TOTAL PROTEIN,[4],6.3 G/DL
same,ABSOLUTE BASOPHIL,[5],0 CELLS/uL
same,ABSOLUTE EOSINOPHIL,[5],0 CELLS/uL
same,ABSOLUTE LYMPHOCYTE,[5],14606 CELLS/uL
same,ABSOLUTE MONOCYTE,[5],577.33 CELLS/uL
same,ABSOLUTE SEGMENTED NEUTROPHIL,[5],4283.33 CELLS/uL
same,BASOPHIL,[5],0%
same,EOSINOPHIL,[5],0%
same,ERYTHROCYTE COUNT,[5],6.1 x10E6/uL
same,HEMOGLOBIN,[5],13.07 G/DL
same,LEUKOCYTE COUNT,[5],19.47 x10E3/uL
same,LYMPHOCYTE,[5],75%
same,MEAN CORPUSCULAR HEMOGLOBIN,[5],21.43 pg
same,MEAN CORPUSCULAR HEMOGLOBIN CONCENTRATION,[5],36.87 G/DL
same,MEAN CORPUSCULAR VOLUME,[5],58.1 fL
same,NUCLEATED RED BLOOD CELLS,[5],0 /100WBC
same,PLATELET COUNT,[5],1295.33 x10E3/uL
same,ALANINE AMINOTRANSFERASE,[5],52.33 u/L
same,ALBUMIN,[5],3.83 G/DL
same,ALKALINE PHOSPHATASE,[5],328 u/L
same,ASPARTATE AMINOTRANSFERASE,[5],85.67 u/L
same,CHOLESTEROL,[5],64.67 mg/dL
same,CREATININE,[5],0.15 mg/dL
same,LACTATE DEHYDROGENASE,[5],386.33 u/L
same,LIPASE,[5],9 u/L
same,PHOSPHORUS,[5],12.27 mg/dL
same,POTASSIUM,[5],6.8 MEQ/L
same,SODIUM,[5],147.2 MEQ/L
same,TOTAL BILIRUBIN,[5],0.1 mg/dL
same,TOTAL PROTEIN,[5],5.9 G/DL
